Assay results from ChEMBL document CHEMBL4480380, “Identification and biological evaluation of novel benzothiazole derivatives bearing a pyridine-semicarbazone moiety as apoptosis inducers via activation of procaspase-3 to caspase-3” (Medchemcomm, 2019).
The source made the active and inactive calls. The rule behind the calls is not given here.

Tests used:
Danio rerio [1] = organism: Danio rerio; assay: Induction of apoptosis in zebrafish AB embryos assessed as accumulation of dying cells in cranial neural crest at 40 to 60 uM after 24 hrs post fertilization by acridine orange staining-based fluorescence microscopic analysis; type: functional, organism-based
U-937 [2] = assay: Induction of apoptosis in human U937 cells assessed as late apoptotic cells at 6.6 uM after 48 hrs by Annexin V-FITC/propidium iodide staining-based flow cytometric analysis (reference value: 3.89%); type: functional
[3] = Half life in mouse liver microsomes in presence of NADPH by LC-MS analysis; type: ADME, Microsome
U-937 [4] = assay: Induction of apoptosis in human U937 cells assessed as late apoptotic cells at 3.3 uM after 48 hrs by Annexin V-FITC/propidium iodide staining-based flow cytometric analysis (reference value: 3.89%); type: functional
U-937 [5] = assay: Induction of apoptosis in human U937 cells assessed as early apoptotic cells at 3.3 uM after 48 hrs by Annexin V-FITC/propidium iodide staining-based flow cytometric analysis (reference value: 6.16%); type: functional
[6] = Toxicity in zebrafish AB embryos at 40 uM after 48 hrs post fertilization by stereo microscopic analysis; parameters: species or system Danio rerio; details: in vivo
[7] = Toxicity in zebrafish AB embryos assessed as induction of mortality at 40 uM after 72 hrs post fertilization by stereo microscopic analysis; parameters: species or system Danio rerio; details: in vivo
U-937 [8] = assay: Induction of apoptosis in human U937 cells assessed as early apoptotic cells at 6.6 uM after 24 hrs by Annexin V-FITC/propidium iodide staining-based flow cytometric analysis (reference value: 4.88%); type: functional
Caspase-3 (Homo sapiens) = target: T1, Caspase-3 (Homo sapiens) (UniProt P42574); assay: Activation of procaspase-3 (unknown origin) at 10 uM using Ac-DEVD-AFC as substrate preincubated for 4 hrs followed by substrate addition and measured after 5 mins by fluorescence assay relative to control
T1 sequence (whole entry): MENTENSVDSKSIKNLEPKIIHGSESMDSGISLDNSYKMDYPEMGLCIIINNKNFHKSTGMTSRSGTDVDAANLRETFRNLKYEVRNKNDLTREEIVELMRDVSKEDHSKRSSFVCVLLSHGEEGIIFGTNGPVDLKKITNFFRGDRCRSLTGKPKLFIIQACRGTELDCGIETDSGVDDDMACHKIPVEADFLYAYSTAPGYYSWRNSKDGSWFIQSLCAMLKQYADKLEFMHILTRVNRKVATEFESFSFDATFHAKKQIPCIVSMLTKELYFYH

U-937 [9] = assay: Induction of apoptosis in human U937 cells assessed as late apoptotic cells at 3.3 uM after 24 hrs by Annexin V-FITC/propidium iodide staining-based flow cytometric analysis (reference value: 3.27%); type: functional
U-937 [10] = assay: Induction of apoptosis in human U937 cells assessed as caspase-3 activity at 30 uM using Ac-DEVD-AFC as substrate preincubated for 16 hrs followed by substrate addition and measured after 60 mins by fluorescence assay (reference value: 7+/- 1%); type: functional
U-937 [11] = assay: Induction of apoptosis in human U937 cells assessed as early apoptotic cells at 3.3 uM after 24 hrs by Annexin V-FITC/propidium iodide staining-based flow cytometric analysis (reference value: 4.88%); type: functional
U-937 [12] = assay: Induction of apoptosis in human U937 cells assessed as late apoptotic cells at 6.6 uM after 24 hrs by Annexin V-FITC/propidium iodide staining-based flow cytometric analysis (reference value: 3.27%); type: functional
[13] = Intrinsic clearance in mouse liver microsomes in presence of NADPH by LC-MS analysis; type: ADME, Microsome; details: read-out: CLH
[14] = Half life in rat liver microsomes in presence of NADPH by LC-MS analysis; type: ADME, Microsome
U-937 [15] = assay: Induction of apoptosis in human U937 cells assessed as early apoptotic cells at 6.6 uM after 48 hrs by Annexin V-FITC/propidium iodide staining-based flow cytometric analysis (reference value: 6.16%); type: functional
MCF7 = assay: Antiproliferative activity against human MCF7 cells after 24 hrs by CCK-8 assay; type: functional, cell-based; details: MCF7, 24 h
[16] = Intrinsic clearance in human liver microsomes in presence of NADPH by LC-MS analysis; type: ADME, Microsome; details: read-out: CLH
[17] = Intrinsic clearance in rat liver microsomes in presence of NADPH by LC-MS analysis; type: ADME, Microsome; details: read-out: CLH
[18] = Half life in human liver microsomes in presence of NADPH by LC-MS analysis; type: ADME, Microsome
Danio rerio [19] = organism: Danio rerio; assay: Induction of apoptosis in zebrafish AB embryos assessed as accumulation of dying cells in head at 40 to 60 uM after 24 hrs post fertilization by acridine orange staining-based fluorescence microscopic analysis; type: functional, organism-based
U-937 [20] = assay: Antiproliferative activity against human procaspase-3 over-expressing U937 cells after 24 hrs by CCK-8 assay; type: functional, cell-based; details: U-937, 24 h
Danio rerio [21] = organism: Danio rerio; assay: Induction of apoptosis in zebrafish AB embryos assessed as increase in bax mRNA expression at 40 to 60 uM after 24 hrs post fertilization by RT-PCR analysis; type: functional, organism-based
[22] = Selectivity ratio of IC50 for human MCF7 cells to IC50 for human procaspase-3 over-expressing U937 cells; type: functional
[23] = Toxicity in zebrafish AB embryos at 5 to 20 uM measured at 24 to 72 hrs post fertilization by stereo microscopic analysis; parameters: species or system Danio rerio; details: in vivo
U-937 [24] = assay: Induction of apoptosis in human U937 cells assessed as early apoptotic cells at 2.6 uM after 24 hrs by Annexin V-FITC/propidium iodide staining-based flow cytometric analysis (reference value: 4.88%); type: functional
U-937 [25] = assay: Induction of apoptosis in human U937 cells assessed as early apoptotic cells at 5.2 uM after 24 hrs by Annexin V-FITC/propidium iodide staining-based flow cytometric analysis (reference value: 4.88%); type: functional
U-937 [26] = assay: Induction of apoptosis in human U937 cells assessed as late apoptotic cells at 2.6 uM after 48 hrs by Annexin V-FITC/propidium iodide staining-based flow cytometric analysis (reference value: 3.89%); type: functional
U-937 [27] = assay: Induction of apoptosis in human U937 cells assessed as early apoptotic cells at 2.6 uM after 48 hrs by Annexin V-FITC/propidium iodide staining-based flow cytometric analysis (reference value: 6.16%); type: functional
U-937 [28] = assay: Induction of apoptosis in human U937 cells assessed as early apoptotic cells at 5.2 uM after 48 hrs by Annexin V-FITC/propidium iodide staining-based flow cytometric analysis (reference value: 6.16%); type: functional
U-937 [29] = assay: Induction of apoptosis in human U937 cells assessed as late apoptotic cells at 2.6 uM after 24 hrs by Annexin V-FITC/propidium iodide staining-based flow cytometric analysis (reference value: 3.27%); type: functional
U-937 [30] = assay: Induction of apoptosis in human U937 cells assessed as late apoptotic cells at 5.2 uM after 48 hrs by Annexin V-FITC/propidium iodide staining-based flow cytometric analysis (reference value: 3.89%); type: functional
U-937 [31] = assay: Induction of apoptosis in human U937 cells assessed as late apoptotic cells at 5.2 uM after 24 hrs by Annexin V-FITC/propidium iodide staining-based flow cytometric analysis (reference value: 3.27%); type: functional

In the case of `CC1CCN(Cc2ccc3nc(NC(=O)NN=C(c4ccccn4)c4ccccn4)sc3c2)CC1`, the Activity (Danio rerio [1]) is reported as “Active”, the Activity (U-937 [2]) is reported as 17.66% and the half-life [3] is reported as 0.279 h. The Activity (U-937 [4]) was 9.86%, the Activity (U-937 [5]) was 20.55% and the Activity [6] was “Toxic”. For the same compound, the Activity [7] was “Toxic”, the Activity (U-937 [8]) was 19.27% and the Activity (Caspase-3 (Homo sapiens)) was 92.1%. It also gave an Activity (U-937 [9]) of 6.75%, an Activity (U-937 [10]) of 114% and an Activity (U-937 [11]) of 15.85%. It also gave an Activity (U-937 [12]) of 8.5%, a CLint scaled [13] of 19.6 L/h/kg and a half-life [14] of 1.23 h. For the same compound, the Activity (U-937 [15]) was 26.89%, the IC50 (MCF7) was > 40 µM and the CLint scaled [16] was 1.32 L/h/kg. The CLint scaled [17] was 2.02 L/h/kg, the half-life [18] was 1.32 h and the Activity (Danio rerio [19]) was “Active”. The IC50 (U-937 [20]) was 6.6 µM, the Activity (Danio rerio [21]) was “Active” and the “Ratio IC50” value [22] was 6. The Activity [23] was “Non-Toxic”.

With `CCN(CC)Cc1ccc2nc(NC(=O)N/N=C/c3ccccn3)sc2c1` the IC50 (MCF7) was > 40 µM, the IC50 (U-937 [20]) was 24.8 µM and the “Ratio IC50” value [22] was 1.6.

With `CCN(CC)Cc1ccc2nc(NC(=O)N/N=C(\C)c3cnccn3)sc2c1` the IC50 (MCF7) was > 40 µM and the IC50 (U-937 [20]) was > 40 µM.

For `CCN(CC)Cc1ccc(NC(=O)NN=C(c2ccccc2)c2ccccc2)cc1`, the Activity (U-937 [10]) was 20%, the IC50 (MCF7) was 13.1 µM and the IC50 (U-937 [20]) was > 25 µM. For the same compound, the “Ratio IC50” value [22] was <1.

With `CCN(CC)Cc1ccc(NC(=O)NN=C(c2ccccn2)c2ccccn2)cc1` the IC50 (MCF7) was > 40 µM and the IC50 (U-937 [20]) was > 40 µM.

In the case of `CC1CCN(Cc2ccc(NC(=O)N/N=C/c3ccccn3)cc2)CC1`, the IC50 (MCF7) is reported as > 40 µM and the IC50 (U-937 [20]) is reported as > 40 µM.

In the case of `C/C(=N\NC(=O)Nc1ccc(CN2CCC(C)CC2)cc1)c1cnccn1`, the IC50 (MCF7) is reported as > 40 µM and the IC50 (U-937 [20]) is reported as > 40 µM.

For `C/C(=N\NC(=O)Nc1nc2ccc(CN(C)C)cc2s1)c1cnccn1`, the IC50 (MCF7) was > 40 µM and the IC50 (U-937 [20]) was > 40 µM.

With `C/C(=N\NC(=O)Nc1nc2ccc(CN3CCC(C)CC3)cc2s1)c1cnccn1` the IC50 (MCF7) was 11.8 µM, the IC50 (U-937 [20]) was > 40 µM and the “Ratio IC50” value [22] was <1.

With `CCN(CC)Cc1ccc2nc(NC(=O)N/N=C(\C)c3ccc(F)cc3)sc2c1` the Activity (U-937 [10]) was 40%, the IC50 (MCF7) was 12.3 µM and the IC50 (U-937 [20]) was > 40 µM. For the same compound, the “Ratio IC50” value [22] was <1.

In the case of `C/C(=N\NC(=O)Nc1nc2ccc(CN3CCC(C)CC3)cc2s1)c1ccccc1`, the IC50 (MCF7) is reported as > 40 µM and the IC50 (U-937 [20]) is reported as > 40 µM.

In the case of `C/C(=N\NC(=O)Nc1nc2ccc(CN3CCC(C)CC3)cc2s1)c1ccccn1`, the Activity (Danio rerio [1]) is reported as “Active”, the half-life [3] is reported as 0.894 h and the Activity (U-937 [24]) is reported as 16.16%. For the same compound, the Activity (U-937 [25]) was 19.79%, the Activity (U-937 [26]) was 9.17% and the Activity [7] was “Toxic”. For the same compound, the Activity (Caspase-3 (Homo sapiens)) was 77.8%, the Activity (U-937 [10]) was 99% and the CLint scaled [13] was 6.11 L/h/kg. For the same compound, the Activity (U-937 [27]) was 19.59%, the Activity (U-937 [28]) was 28.06% and the Activity (U-937 [29]) was 6.3%. The half-life [14] was 1.59 h, the IC50 (MCF7) was 12.4 µM and the CLint scaled [16] was 1.34 L/h/kg. For the same compound, the CLint scaled [17] was 1.56 L/h/kg, the half-life [18] was 1.3 h and the Activity (Danio rerio [19]) was “Active”. It also gave an Activity (U-937 [30]) of 18.7%, an IC50 (U-937 [20]) of 5.2 µM and an Activity (U-937 [31]) of 8.15%. For the same compound, the Activity (Danio rerio [21]) was “Active”, the “Ratio IC50” value [22] was 2.3 and the Activity [23] was “Non-Toxic”.

With `CCN(CC)Cc1ccc2nc(NC(=O)N/N=C(\C)c3ccccn3)sc2c1` the IC50 (MCF7) was > 40 µM, the IC50 (U-937 [20]) was 15.6 µM and the “Ratio IC50” value [22] was 2.6.
